This note sets out measurements from PubChem BioAssay (NCI).

Some test systems named below: DLD-1 colon; DMS 273 small cell lung; HOP-18 NSCLC; M19-MEL melanoma; P388 leukemia; P388/ADR leukemia; SF-539 CNS; SN12K1 renal; XF 498 CNS; DMS 114 small cell lung; LXFL 529 NSCLC.
What all share (assay): NCI tumour cell line growth inhibition, 48 h

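A five-concentration, 48-hour dose response in 96-well plates underlies each endpoint, interpolated linearly between surrounding concentrations. Definition used: TGI = concentration required for complete inhibition of growth.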

Regarding `O=P1(Oc2ccc(Cl)cc2Cl)Oc2ccc3ccccc3c2-c2c(ccc3ccccc23)O1`, the TGI is > 100 µM in the assay on DLD-1 colon; > 93.2 µM with DMS 273 small cell lung; > 100 µM with HOP-18 NSCLC; 47.9 µM in the assay on M19-MEL melanoma; > 100 µM in the assay with P388 leukemia; > 100 µM in the assay on P388/ADR leukemia. For the same molecule, the TGI with SF-539 CNS came out at 43 µM; in the assay with SN12K1 renal, 43.1 µM; with XF 498 CNS, 56.7 µM.
For `COc1ccc(C2SCC(=O)N2NC(=O)c2ccncc2)cc1F` (stereo not given), the TGI in the assay on DLD-1 colon, with DMS 114 small cell lung, in the assay with DMS 273 small cell lung, with HOP-18 NSCLC, in the assay on LXFL 529 NSCLC and in the assay on XF 498 CNS was > 100 µM throughout.
